Laboratory results reported in patent US12391768B2, “Antibodies to ticagrelor and methods of use” (MEDIMMUNE LIMITED, priority 2014, dated 2025).

What was measured:
[1] = Total plasma concentration of ticagrelor and TAM (LC-MS/MS); assay type: in vivo, mice; details: Example 12
Description: Blood samples were collected in tubes with EDTA anticoagulant and centrifuged for 5 min at 10000× g at room temperature to prepare plasma. The plasma concentration of ticagrelor and TAM were determined by protein precipitation and liquid chromatography with tandem mass spectrometry (LC-MS/MS) as described in published method [Sillén H., et al., J Chromatogr B Analyt Technol Biomed Life Sci 2010; 878: 2299-306] with the following deviations. Plasma, 50 μL, was protein precipitated with 180 μl internal standard (D7-ZD6140) in acetonitrile. The liquid chromatographic system and mass spectrometer was an Acquity Ultra Performance LC coupled to a Xevo TQ-S mass spectrometer from Waters. Chromatographic separation was achieved on an Aquity UPLC® BEH C18 column (2.1×50 mm, particle size 1.7 um). Negative electrospray ionization was utilized. Eluent A was water with 10 mmol/L ammonium acetate, pH5 and eluent B was acetonitrile with 10 mmol/L ammonium acetate. Injection volume was 1 to 5 μL and the analytical gradient started with 4% B, increasing to 95% in 1.5 min, remaining until 2.3 min, before returning to initial conditions within 2.4 min followed by 0.3 min re-equilibration. No quality control samples were used in the analysis. The lower limit of quantification (LLOQ) was 0.005 μmol/L and the calibration range was 0.005 to 15.0 μM.
The total plasma concentrations of ticagrelor and TAM in presence of TICA0212/MEDI2452 were determined by adding 1% formic acid (FA: Sample, 1:5) followed by protein precipitation and LC-MS/MS as described above. Formic acid was added to the sample to facilitate dissociation of ticagrelor and TICA0212/MEDI2452.

TICA0212 Fab = assay: HTRF competition binding selectivity assay, TICA0212 His-Fab; set-up: species or system human; details: Table 7, DMSO normalised; 5 nM biotinylated ticagrelor, 1 nM His Fab; read-out: IC50 (uM) for inhibition of biotinylated ticagrelor binding to TICA0212 Fab
Description: (§1) Total Binding control wells were set up which contained all of the assay components above except that 5 ul assay buffer was added in place of the test selectivity compound addition. Negative Binding control wells were set up which contained all of the assay components included in the Total Binding control wells except that 5ul assay buffer was added in place of the His-Fab addition. Test compound serial titrations were either ½ or ⅓ depending on the particular experiment and top final assay compound concentrations were optimized on a compound specific basis. The concentration of biotinylated ticagrelor and His-Fab was optimized on a Fab specific basis in separate experiments. For the four Fabs investigated at the end of the lead isolation phase (TICA0010, TICA0049, TICA0053 and TICA0072) the final assay reagent concentrations used are set out in Table 1 below:
For the two Fabs investigated at the end of the lead optimization phase (TICA0162 and TICA0212) the final assay reagent concentrations used were 5nM biotinylated ticagrelor and 1 nM His Fab in both cases. […] At the end of the set up procedure that assay was incubated for 3hrs at RT before being read on an Envision plate reader using a standard read protocol. […]

[2] = cited from earlier work
TICA0049 Fab = assay: HTRF competition binding selectivity assay, TICA0049 His-Fab; set-up: species or system human; details: second series (Table 3), DMSO normalised; read-out: IC50 in competition binding selectivity studies, TICA0049
Description: as §1
(§2) For the two Fabs investigated at the end of the lead optimization phase (TICA0162 and TICA0212) the final assay reagent concentrations used were 5nM biotinylated ticagrelor and 1 nM His Fab in both cases. […] In order to enable subsequent normalization of data to correct for any such vehicle related effects parallel titrations of DMSO alone were included in most experiments in which the final assay DMSO concentrations mirrored those of the test compound serial dilutions. At the end of the set up procedure that assay was incubated for 3hrs at RT before being read on an Envision plate reader using a standard read protocol.
(§3) The negative ratio value used in the calculation of % Delta F was derived from the Negative Binding control wells. % Delta F values were then used to calculate % Specific Binding values according to the equation below: Specific Binding (%)={(Sample Delta F−Negative Binding Delta F)/(Total Binding Delta F−Negative Binding Delta F)}×100
(§4) For standard calculations of % Specific Binding Total Binding Delta F was taken from Total Binding control wells which contained all of the aforementioned components of the assay but without inclusion of any competing test compound.
(§5) In those experiments where DMSO normalization was applied DMSO normalised % Specific Binding was calculated essentially according to the equation above except that in this case Total Binding Delta F was taken from wells containing all of the components in the Total Binding control wells as well as DMSO at a concentration equivalent to that in the relevant sample well.
(§6) In a second series of experiments further selectivity data was generated for TICA0049 and TICA0072 Fabs in which a subset of four of the twelve compounds listed in FIG. 4 were retested along with ticagrelor, TAM and TIM and several adenosine related compounds. Here, in a refinement to the earlier investigations in Table 2, experiments were designed in order to enable normalisation of percent specific binding values to correct for any non-specific vehicle related effects due to DMSO. Example plotted data from this second series of experiments is shown in FIG. 5A-F along with tabulated IC50 values in Table 3.

TICA0010 Fab = assay: HTRF competition binding selectivity assay, TICA0010 His-Fab; set-up: species or system human; details: first series (Table 2), not DMSO normalised; read-out: IC50 (uM) for inhibition of biotinylated ticagrelor binding to TICA00l0 his-Fab
Description: as §1, §2, §3, §4, §5

TICA0053 Fab = assay: HTRF competition binding selectivity assay, TICA0053 His-Fab; set-up: species or system human; details: first series (Table 2), not DMSO normalised; read-out: IC50 (uM) for inhibition of biotinylated ticagrelor binding to TICA0053 his-Fab
Description: as §1, §2, §3, §4, §5

TICA0072 Fab = assay: HTRF competition binding selectivity assay, TICA0072 His-Fab; set-up: species or system human; details: second series (Table 3), DMSO normalised; read-out: IC50 in competition binding selectivity studies, TICA0072
Description: as §1, §2, §3, §4, §5, §6

TICA0162 Fab = assay: HTRF competition binding selectivity assay, TICA0162 His-Fab; set-up: species or system human; details: Table 7, DMSO normalised; 5 nM biotinylated ticagrelor, 1 nM His Fab; read-out: IC50 (uM) for inhibition of biotinylated ticagrelor binding to TICA0162 Fab
Description: as §1
as §2, with “protocol. […]” for “protocol.”
as §5

P2Y12 = P2Y12 (Homo sapiens, UniProt Q9H244); details: cited from earlier work
[3] = HTRF HTS of periplasmic scFv, Assay 3 versus Assay 1; assay type: binding; details: 30 nM biotinylated ticagrelor, 50-fold excess (1500 nM) unmodified ticagrelor
From the text: Using known techniques, a human scFv phage display library was used to generate scFv antibodies, and specific scFvs were isolated from the library in a series of repeated selection cycles on biotinylated ticagrelor with deselection on biotinylated adenosine, essentially as described in Lloyd et al 2009 PEDS 22: 159-168, incorporated herein by reference. A number of individual clones from the round 2 and round 3 selection outputs were selected, seFvs were expressed in the bacterial periplasm and screened for specificity in three parallel biochemical assays. […]
Assays 1, 2, and 3 were performed using the same general techniques and strategy. […] HTRF® (homogeneous time resolved fluorescence) is based upon the principle of TR-FRET (time resolved fluorescence resonance energy transfer). […] Provided the donor and acceptor fluorophores are in sufficiently close proximity (approx. <10 nm), the excitation of the Europium cryptate donor (337 nm) results in a transfer of energy to the XL^665 acceptor which in turn emits a fluorescence signal at 665 nm. […]
Raw 665 nm and 620 nm counts were first converted into 665 nm/620 nm ratio values and subsequently results were expressed as Delta F (%) values. Delta F was calculated according to the following equation: Delta F (%)={((sample 665/620 ratio)−(negative 665/620) ratio))/(negative 665/620 ratio)}×100 […]

[4] = molecular target: TICA0159 IgG binding to biotinylated ticagrelor; assay: Second generation HTRF epitope competition assay
Description: Purified parent TICA0072 (scFv or Fab) was used as a benchmark in all experiments such that improvements in IC50 measured with optimized variants (scFv or Fab) could be expressed as fold improvements over parent TICA0072. Total Binding Control Wells contained all assay components except that 5 ul assay buffer was added in place of the purified scFv or Fab sample. Negative Binding control wells contained all of the components of the Total Binding control wells except that 5 ul of assay buffer was added in place of the TICA0072 IgG.
In both single point HTS and multipoint IC50 profiling versions of the assay. plates were incubated for 3 hrs at RT before being read on an Envision plate reader using a standard HTRF read protocol in which samples are excited at 337 nm and time resolved fluorescence emission is measured at both 620 nm and 665 nM.
Raw 665 nm and 620 nm counts were used to calculate Delta F (%) and % Specific Binding according to the equations described earlier in Assays 1 and 4, respectively. For multipoint secondary profiling experiments IC50 values were determined using Graphpad Prism software using sigmoidal dose response (variable slope) curve fitting (4 parameter logistic equation).
This assay was used only in multipoint IC50 profiling format (as opposed to HTS format) and was performed essentially identically to the method given in Assay 5 (above) for multipoint IC50 profiling of purified Fab variants in the parent TICA0072 IgG based epitope competition assay. The only difference being that TICA0159 IgG was used in place of TICA0072 IgG at the appropriate point in the assay set up but at the same 16nM final assay concentration. In all other respects this assay was performed exactly as described above in the multipoint secondary profiling version for purified Fab.

Sequence of P2Y12 (Q9H244 whole entry): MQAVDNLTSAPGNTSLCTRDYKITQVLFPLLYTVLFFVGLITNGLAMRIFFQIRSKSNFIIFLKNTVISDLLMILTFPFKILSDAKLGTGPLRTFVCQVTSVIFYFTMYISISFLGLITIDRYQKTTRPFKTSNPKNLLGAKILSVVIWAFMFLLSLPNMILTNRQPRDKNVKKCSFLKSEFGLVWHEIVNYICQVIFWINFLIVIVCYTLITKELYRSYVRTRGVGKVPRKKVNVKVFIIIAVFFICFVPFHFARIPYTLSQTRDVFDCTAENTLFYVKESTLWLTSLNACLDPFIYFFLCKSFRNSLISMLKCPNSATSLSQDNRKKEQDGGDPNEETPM

| mean total plasma concentration ([1]; end of ticagrelor infusion 300 μg/kg/min 20 min, mice) [µM] | mean total plasma concentration at time of tail cut ([1]; vehicle treated mice, t=30 minutes) [µM] | IC50 (TICA0212 Fab) [µM] | IC50 (TICA0049 Fab) [nM] | IC50 (TICA0010 Fab) [µM] | IC50 (TICA0053 Fab) [µM] | IC50 (TICA0072 Fab) [nM] | IC50 (TICA0162 Fab) [µM] | % inhibition of binding observed in Assay 3 versus Assay 1 [3] [%] | IC50 ([4]; Fab, 16 nM TICA0159 IgG, 1 nM biotinylated ticagrelor) [nM] | Fold Improved ([4]; IC50 relative to parent TICA0072 Fab) | Molecule | circulating half-life ([2]; human, in vivo) [h] | concentration as % of the parent ticagrelor concentration ([2]; patients on BRILINTA/BRILIQUE) | P2Y12 antagonist activity (P2Y12) |
| --- | --- | --- | --- | --- | --- | --- | --- | --- | --- | --- | --- | --- | --- | --- |
| 0.3 | 0.6 | 0.031 | 366 | 0.124 | 0.134 | 483 | 0.032 |  |  |  | CCCSc1nc(N[C@@H]2C[C@H]2c2ccc(F)c(F)c2)c2nnn([C@@H]3C[C@H](O)[C@@H](O)[C@H]3O)c2n1 [TAM] | 12 | 30-40% | equally effective |
|  |  |  |  |  |  |  |  | > 90 | 1710 | 0 | TICA0072: parent anti-ticagrelor/TAM antibody; VH SEQ ID NO:32, VL SEQ ID NO:37 (antibody, listed as Homo sapiens, V domains shown) VH: QVQLQESGAEVKKPGSSVRVSCKASGGTFDSYSIHWVRQAPGQGLEWMGGIIPAFGTLSSAQDFQARVTISADKSTSTAYMELSGLRSEDTAVYYCARGSHLYDFWSASHPPNDALAIWGQGTLVTVSS VL: QSVVTQPPSVSAAPGQKVTISCSGSNSDIGNNYVSWYQQLPGTAPKLLIYDNNKRPSGIPDRFSGSKSGTSATLAITGLQAGDEADYYCGTWDISLSAGLFGGGTKVTVL |  |  |  |
